A short description of test [1]: Heparin assay (USP heparin potency). The source says:
The chemical, physical and physiological properties of the dermatan sulfates, including the LMWDS embodiments, of this invention can be determined by the following methods: • a. Molecular weight. By gel permeation chromatography according to the method of and as defined by van Dedem et al., “Determinations of the Molecular Mass of Low Molecular Mass (LMM) Heparin,” Pharmeuropa (1991) 3:202-225 (herein incorporated by reference), using the 1st International Reference Standard for Low Molecular Weight Heparin (90/868) as the calibrant. Average molecular weights. By viscometric methods as described by Liberti et al., “Physiochemical Studies of Fractionated Bovine Heparin II: Viscosity as a Function of Ionic Strength,” Arch. Biochem. Biophys. […] The % sulfur is determined from the weight of barium sulfate. • c. […] Measurements can be performed manually or on an ACL 300 Plus Analyzer (Instrumentation Laboratory, Lexington Mass.) and anti-factor IIa activity calculated based on the USP Heparin Reference Standard K-5 (U.S. Pharmacopeial Convention, Inc., Rockville Md.). • e. […] Quantified by the PF4 ENHANCED® ELISA kit (Cat. No. X-HAT 45) according to the manufacturer's instructions (GTI, Waukesha Wis.).
The chemical, physical and physiological properties of the O-desulfated heparins of this invention can be determined by the following methods: • a. […]

Test [2] concerns the target T1, purified α-thrombin in the presence of purified human HCII (Homo sapiens, UniProt P05546).
T1 construct: Performed in a plasma-free system with purified α-thrombin; purchased Enzyme Research Laboratories, South Bend Ind; (α-thrombin, Lot No. HT2450PRA)
T1 sequence (P05546 20-499): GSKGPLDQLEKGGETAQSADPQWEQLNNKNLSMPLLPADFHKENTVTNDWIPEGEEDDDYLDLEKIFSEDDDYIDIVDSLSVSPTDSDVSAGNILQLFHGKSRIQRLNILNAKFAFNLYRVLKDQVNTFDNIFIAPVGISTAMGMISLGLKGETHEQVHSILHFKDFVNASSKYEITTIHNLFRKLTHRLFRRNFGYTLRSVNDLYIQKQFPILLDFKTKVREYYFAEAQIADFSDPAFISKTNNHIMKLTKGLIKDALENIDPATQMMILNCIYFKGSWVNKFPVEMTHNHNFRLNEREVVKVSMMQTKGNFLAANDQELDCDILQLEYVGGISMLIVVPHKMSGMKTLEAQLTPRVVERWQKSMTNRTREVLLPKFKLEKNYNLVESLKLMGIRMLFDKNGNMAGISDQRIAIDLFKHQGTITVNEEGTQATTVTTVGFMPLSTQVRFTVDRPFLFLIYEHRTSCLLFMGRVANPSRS
Description: HCII/anti-IIa activity (plasma-free chromogenic anti-IIa assay with heparin cofactor II). It is filed as biochemical. The source says:
For the purposes of the present invention, the terms “heparin cofactor II (HCII)-dependent anti-IIa activity,” “heparin cofactor II activity” and “HCII activity” refer interchangeably to the thrombin inhibitory potency of a sulfated mucopolysaccharide measured in the presence of purified human heparin cofactor II.
The chemical, physical and physiological properties of the dermatan sulfates, including the LMWDS embodiments, of this invention can be determined by the following methods: • a. Molecular weight. By gel permeation chromatography according to the method of and as defined by van Dedem et al., “Determinations of the Molecular Mass of Low Molecular Mass (LMM) Heparin,” Pharmeuropa (1991) 3:202-225 (herein incorporated by reference), using the 1st International Reference Standard for Low Molecular Weight Heparin (90/868) as the calibrant. Average molecular weights. […] The % sulfur is determined from the weight of barium sulfate. • c. […] Measurements can be performed manually or on an ACL 300 Plus Analyzer (Instrumentation Laboratory, Lexington Mass.) and anti-factor IIa activity calculated based on the USP Heparin Reference Standard K-5 (U.S. Pharmacopeial Convention, Inc., Rockville Md.). • e. […] Quantified by the PF4 ENHANCED® ELISA kit (Cat. No. X-HAT 45) according to the manufacturer's instructions (GTI, Waukesha Wis.).

The record followed here is patent publication US7875596B2, “Use of dermatan sulfates and/or desulfated heparins to treat or prevent heparinoid-induced autoimmune responses” (Celsus Biopharmaceuticals, Inc., priority 2004, dated 2011).

Consider dermatan sulfate, for which, in test [1], the heparin assay was less than 8 u/mg. For the same substance, the HCII/anti-IIa activity result in test [2] is recorded as “less than 15 u/mg”.
